From patent US7018612B1, “Method of preparing a radioactive rhenium complex solution” (Mallinckrodt Inc., priority 1990, dated 2006)

Experiment: Influence of reaction temperature on stability of Re186-HEDP during storage at ambient temperature
Format: physicochemical

Re186-HEDP content at t=0 (labelling by heating 15 minutes in a boiling water bath (just below 100° C.), t=0): 99.12% | Re186-HEDP content at t=24 h (labelling by heating 15 minutes in a boiling water bath, storage at ambient temperature, t=24 h): 93.72%
Substance: rhenium-186 labelled 1-hydroxyethylidene diphosphonate [Re186-HEDP]
